Common to all, as to type: in vivo
Experiment [1] deals with Plutella xylostella. The experiment can be described thus: whole plant or invertebrate. The note with it: in Brassica oleracea, 144 h. The method, then: (§1) A 10% emulsifiable concentrate of the compound of the present invention (depending on the type of the compound, a 10% wettable powder was subjected to the test) was diluted with water containing a spreader to prepare a drug solution in a concentration of 10 ppm. In this drug solution, a leaf of cabbage was immersed for about 10 seconds and was air-dried and then put into a petri dish. In the petri dish, five 2 instar larvae of Plutella xylostella per petri dish were released and the petri dish was capped and stored in a thermostatic room of 25° C. The number of killed larvae after 6 days was measured and the mortality was calculated from the following calculation formula: Mortality (%)=(number of killed insect/number of released insect)×100. Here, the test was carried out on the duplicate samples.

Experiment [2] relates to Spodoptera litura. Put plainly: whole plant or invertebrate. As to conditions: in Brassica oleracea, 144 h. The protocol: as §1, with “Spodoptera litura” for “Plutella xylostella”, “same” for “following”, “formula as that in Test Example 1.” for “formula: Mortality (%)=(number of killed insect/number of released insect)×100.”
The test system of experiment [3] is Spodoptera exigua. The experiment can be described thus: Mortality Test for Spodoptera exigua. As to conditions: in Brassica oleracea, 144 h. The protocol: as §1, with “of 100” for “of 10”, “of Spodoptera exigua” for “of Plutella xylostella”, “the same” for “the following”, “calculation formula as that in Test Example 1.” for “calculation formula: Mortality (%)=(number of killed insect/number of released insect)×100.”

Experiment [4] concerns Homona magnanima. The experiment can be described thus: Mortality Test for Homona magnanima. As to conditions: in Brassica oleracea, 144 h. The method, then:
as §1, with “of 100” for “of 10”, “of Homona magnanima” for “of Plutella xylostella”, “the same” for “the following”, “calculation formula as that in Test Example 1.” for “calculation formula: Mortality (%)=(number of killed insect/number of released insect)×100.”

In experiment [5] the test system is Frankliniella occidentalis. Put plainly: whole plant or invertebrate. As to conditions: in Phaseolus vulgaris, 48 h. The method, then: (§2) In a styrol cup having an inner diameter of 7 cm, a wet filtration paper was laid and on the paper, a leaf of kidney bean cut out so as to have the same diameter as the inner diameter of the cup was laid, followed by inoculating ten 1 instar larvae of Frankliniella occidentalis per leaf with the leaf. A 10% emulsifiable concentrate of the compound of the present invention (depending on the type of the compound, a 10% wettable powder was subjected to the test) was diluted with water containing a spreader to prepare a drug solution in a concentration of 500 ppm. The drug solution was sprayed using a rotary spray tower in an amount of 2.5 mL per styrol cup, and the cup was capped and stored in a thermostatic room of 25° C. The number of killed larvae after 2 days was measured and the mortality was calculated from the same calculation formula as that in Test Example 1. Here, the test was carried out on the duplicate samples.

In experiment [6] the test system is Nilaparvata lugens. The experiment can be described thus: whole plant or invertebrate. The note with it: in Oryza sativa, 144 h. The protocol: (§3) A 10% emulsifiable concentrate of the compound of the present invention (depending on the type of the compound, a 10% wettable powder was subjected to the test) was diluted with water containing a spreader to prepare a drug solution in a concentration of 500 ppm. In this drug solution, a leaf sheath of rice was immersed for about 10 seconds and was air-dried and then put into a test tube. In the test tube, five 2 instar larvae of Nilaparvata lugens per test tube were released and the test tube was capped with a sponge and stored in a thermostatic room of 25° C. The number of killed larvae after 6 days was measured and the mortality was calculated from the same calculation formula as that in Test Example 1. Here, the test was carried out on the duplicate samples.

Experiment [7] relates to Myzus persicae. The experiment can be described thus: whole plant or invertebrate. The note with it: in Brassica oleracea, 144 h. The method, then:
In a glass petri dish having an inner diameter of 3 cm, a wet absorbent cotton was laid and on the cotton, a leaf of cabbage cut out so as to have the same diameter as the inner diameter of the petri dish was laid, followed by releasing four apterous imagines of Myzus persicae on the leaf. After one day, a 10% emulsifiable concentrate of the compound of the present invention (depending on the type of the compound, a 10% wettable powder was subjected to the test) was diluted with water containing a spreader to prepare a drug solution in a concentration of 500 ppm. The drug solution was sprayed using a rotary spray tower (2.5 mg/cm^2), and the petri dish was capped and stored in a thermostatic room of 25° C. The number of killed imagines after 6 days was measured and the mortality was calculated from the same calculation formula as that in Test Example 1. Here, the test was carried out on the duplicate samples.

For experiment [8], the system named is Tetranychus urticae. Put plainly: whole plant or invertebrate. The note with it: in Phaseolus vulgaris, 144 h. The method, then: as §2, with “ten” for “ten 1 instar”, “of Tetranychus urticae” for “of Frankliniella occidentalis”, “after 6” for “after 2”
The subject of experiment [9] is Liriomyza trifolii. Put plainly: whole plant or invertebrate. As to conditions: in Phaseolus vulgaris, 144 h. The protocol: as §3, with “leaf” for “leaf sheath”, “kidney bean which was cut out to a diameter of 7 cm, on which Liriomyza trifolii laid eggs (10 eggs/leaf)” for “rice”, “laid on” for “put into”, “wet filtration paper laid in a styrol cup having an inner diameter” for “test tube. In the test tube, five 2 instar larvae”, “7 cm. The styrol cup” for “Nilaparvata lugens per test tube were released and the test tube”, “capped” for “capped with a sponge”

In experiment [10] the test system is Helicoverpa armigera. The experiment can be described thus: Mortality Test for Helicoverpa armigera (Comparative Test). The note with it: in Brassica oleracea, 144 h. The method, then:
10% emulsifiable concentrates of the compound of the present invention and a comparative compound were diluted with water containing a spreader to prepare drug solutions in a predetermined concentration. In each of the drug solutions, a leaf of cabbage was immersed for about 10 seconds and was air-dried and put into a petri dish. In the petri dish, seven 3 instar larvae of Helicoverpa armigera per petri dish were released and the petri dish was capped with a lid having a pore and stored in a thermostat room of 25° C. After 2 days of the treatment, an artificial fertilizer (1 cm^3) was added into the petri dish. The number of killed larvae after 6 days was measured and the mortality was calculated from the calculation formula: Mortality (%)=(number of killed insect/number of released insect)×100. Here, the test was carried out on the duplicate samples.

The structures appear in SMILES notation. Where only a bound is given, the exact number is not on record here.

Broadly, the mortality is the share of the test organisms that died. A low value points to more survivors. Take `CSCC(=O)NC(C)c1ccc(C2=NOC(c3cc(C(F)(F)F)cc(C(F)(F)F)c3)(C(F)(F)F)C2)cc1` (stereo not drawn) [1-001, N-[1-[4-[5-[3,5-bis(trifluoromethyl)phenyl]-5-trifluoromethyl-4,5-dihydroisoxazole-3-yl]phenyl]ethyl]-2-(methylthio)acetamide]: the mortality at 10 ppm in [1] and in [2] was not below 80% throughout. In addition, the mortality at 100 ppm in experiment [3] and in experiment [4] was not below 80% in each case. The mortality at 500 ppm in [5], in [6], in experiment [7] and in experiment [8] was not below 80% each time.
For the compound `O=C(CSCC(F)(F)F)NCc1ccc(C2=NOC(c3cc(Cl)c(Cl)c(Cl)c3)(C(F)(F)F)C2)cc1Cl` (stereo not drawn) [1-029, N-[2-chloro-4-[5-(3,4,5-trichlorophenyl)-5-trifluoromethyl-4,5-dihydroisoxazole-3-yl]phenyl]methyl-2-(2,2,2-trifluoroethylthio)acetamide], the mortality at 10 ppm in experiment [1] and in experiment [2] was not below 80% in each case. This compound returned a mortality at 100 ppm in experiment [4] not below 80%. In addition, the mortality at 500 ppm in experiment [5], in [6], in [7] and in experiment [8] was not below 80% throughout.
For `COCSCC(=O)NCc1ccc(C2=NOC(c3cc(Cl)c(Cl)c(Cl)c3)(C(F)(F)F)C2)cc1Cl` (stereo not drawn) [1-030, N-[2-chloro-4-[5-(3,4,5-trichlorophenyl)-5-trifluoromethyl-4,5-dihydroisoxazole-3-yl]phenyl]methyl-2-(methoxymethylthio)acetamide], the mortality at 100 ppm in [1] and in experiment [2] was not below 80% in each case.
Consider `CS(CC(=O)NCc1ccc(C2=NOC(c3cc(Cl)c(Cl)c(C(F)(F)F)c3)(C(F)(F)F)C2)cc1Br)=NC#N` (stereo not drawn) [1-103, N-[2-bromo-4-[5-[3,4-dichloro-5-(trifluoromethyl)phenyl]-5-trifluoromethyl-4,5-dihydroisoxazole-3-yl]phenyl]methyl-2-[N-(cyano)methylsulfinimidoyl]acetamide], for which the mortality at 100 ppm in experiment [1] and in experiment [2] was not below 80% in each case.
With `CCS(=N)(=O)CC(=O)NCc1ccc(C2=NOC(c3cc(C(F)(F)F)cc(C(F)(F)F)c3)(C(F)(F)F)C2)cc1Cl` (stereo not drawn) [1-173, N-[2-chloro-4-[5-[3,5-bis(trifluoromethyl)phenyl]-5-trifluoromethyl-4,5-dihydroisoxazole-3-yl]phenyl]methyl-2-(ethylsulfonimidoyl)acetamide], the mortality at 10 ppm in experiment [1] and in experiment [2] was not below 80% in each case. The mortality at 500 ppm in [5], in experiment [9] and in experiment [8] was not below 80% in each case.
For `C[S+]([O-])C(C(=O)NCc1ccc(C2=NOC(c3cc(C(F)(F)F)cc(C(F)(F)F)c3)(C(F)(F)F)C2)cc1Cl)[S+](C)[O-]` (stereo not drawn) [1-211, N-[4-[5-[3,5-bis(trifluoromethyl)phenyl]-5-trifluoromethyl-4,5-dihydroisoxazole-3-yl]-2-chlorophenyl]methyl-2,2-bis(methylsulfinyl)acetamide], the mortality at 100 ppm in experiment [1], in [2] and in [8] was not below 80% in each case. Also, in [9], the mortality at 500 ppm is not below 80%.
As to `CCSC(C(=O)NCc1ccc(C2=NOC(c3cc(C(F)(F)F)cc(C(F)(F)F)c3)(C(F)(F)F)C2)cc1Cl)[S+]([O-])CC` (stereo not drawn) [1-220, N-[4-[5-[3,5-bis(trifluoromethyl)phenyl]-5-trifluoromethyl-4,5-dihydroisoxazole-3-yl]-2-chlorophenyl]methyl-2-ethylsulfinyl-2-(ethylthio)acetamide], the mortality at 100 ppm in experiment [1], in [2], in experiment [4], in experiment [7] and in experiment [8] was not below 80% in each case. Besides, the mortality at 500 ppm in experiment [9] was not below 80%.
For `CCSC(C(=O)NCc1ccc(C2=NOC(c3cc(C(F)(F)F)cc(C(F)(F)F)c3)(C(F)(F)F)C2)cc1Cl)S(=O)(=O)CC` (stereo not drawn) [1-225, N-[4-[5-[3,5-bis(trifluoromethyl)phenyl]-5-trifluoromethyl-4,5-dihydroisoxazole-3-yl]-2-chlorophenyl]methyl-2-ethylsulfonyl-2-(ethylthio)acetamide], the mortality at 100 ppm in experiment [1] and in experiment [2] was not below 80% in each case. In addition, the mortality at 500 ppm in experiment [7] and in experiment [8] was not below 80% each time.
For the compound `CSCC(=O)NCc1ccc(C2=NOC(c3cc(Cl)cc(Cl)c3)(C(F)(F)F)C2)cc1Cl` (stereo not drawn) [Comparative compound A], in experiment [10], the mortality at 1 ppm was found to be 0%, the mortality at 3 ppm amounted to 57.1%, the mortality at 10 ppm was 92.9% and the mortality at 33 ppm came to 100%.

Source of the values: patent publication US8318757B2, “Substituted isoxazoline compound and pest control agent” (Nissan Chemical Industries, Ltd., priority 2007, dated 2012).
